Measured values reported in patent US11400091B2, “AXL kinase inhibitors and use of the same” (Sumitomo Pharma Oncology, Inc., priority 2018, dated 2022).
Counter-ions that a name gives are not always drawn.

Key:
[1] = system: CYP26 mRNA in MV4-11 leukemia cells; experiment: CYP26 mRNA expression (RT-PCR); assay type: cell-based; settings: 1 μM RA; 6 hours
ES-2 cells = experiment: Scratch assay, migration of ovarian tumor cells; assay type: cell-based; settings: 6 hours pre-treatment; images 18 hours post-scratching; BMS-777607 up to 10 μM
ovarian cell lines = experiment: Cisplatin (CDDP) sensitivity of ovarian cell lines; assay type: cell-based
[2] = Kinetic solubility in bio-relevant buffers; assay type: physicochemical; settings: for solubility at 24 h: 37 °C, thermodynamic from solid; for solubility kinetic: bio-relevant buffers (FaSSIF, fassgf or other biorelevant, thermodynamic from solid), FeSSIF and SGF, read-out: kinetic solubility in all biorelevant buffers; for solubility kinetic / Solubility: 37° C.; for Solubility: di-tartrate salt
[3] = Dynamic Vapor Sorption (DVS); assay type: physicochemical; settings: 25° C.; for water uptake at 80% RH: DVS; for FC (form change) after DVS: up to 80% RH
Procedure: The Dynamic Vapour Sorption studies were performed using a Surface Measurement Systems Ltd. DVS-1 No Video, equipment #2126. The sample is loaded into balance pan, typically 20-30 mg, and equilibrated at 0% RH. […] After completion of the sorption cycle, the sample was dried using the same method. The software used for data collection is DVSWin v3.01 No Video. Data analysis is performed using DVS Standard Analysis Suite v6.3.0 (Standard).

[4] = Single dose toxicity study; assay type: in vivo; settings: single oral 150 mg/kg (free base equivalent); by the end of the recovery period
Procedure: The FB dose levels evaluated were 20, 50, and 150 mg/kg. The test articles were formulated with 1% Tween 80/5% TPGS/Sterile Water for Injection (v/v/v) and the study designed as indicated in Table 15 below:
Endpoints in the study consisted of mortality checks, clinical observations, body weight measurements and toxicokinetics. Following a 7-day post-dose observation period, animals were euthanized, necropsied and macroscopic observations recorded.

pH solubility = assay type: physicochemical; settings: for solubility at 24 h: 37 °C, thermodynamic from solid; for FC (form change) of residual solid / Solubility: 24 hours; for Solubility: 37° C.
[5] = Solid state stability at 40° C./75% RH; assay type: physicochemical; settings: for Form Change at 3 weeks / HPLC Purity at 3 weeks (area %): 3 weeks under 40° C./75% RH; for Initial HPLC Purity (area %): before storage
Procedure: Agilent 1260 HPLC was utilized and detailed chromatographic conditions for purity and solubility measurement are listed in Table 13 below.
The table below summarizes the characterization and solid state stability results observed for FB and Forms A, B, and D. Samples were prepared and data was obtained according to the procedures and processes listed above unless otherwise specified. More procedures, processes, and results are listed below in Table 14.

[6] = Stability studies of crystalline forms (HPLC); assay type: physicochemical
[7] = 7-day repeat dose toxicity and toxicokinetics; assay type: in vivo, CD-1 mice; settings: high dose level (80 mg/kg/day)
Excerpt: The test articles were formulated with 1% Tween 80/5% TPGS/Sterile Water for Injection (v/v/v) and the study designed as indicated in Table 16 below:
Endpoints during the study consisted of clinical observations, body weight, and toxicokinetics. Animals euthanized due to excessive body weight loss in the toxicology-designated groups were euthanized, necropsied, and macroscopic observations recorded.

[8] = Moisture sorption isotherm of crystalline forms; assay type: physicochemical
H1650 = H1650 NSCLC xenograft; assay type: in vivo, athymic nude mice; settings: 21-day regimen; tartrate salt 40 mpk qd; osimertinib 20 mpk qd
Procedure: H1650 cells were injected subcutaneously into the hind flank of athymic nude mice at 1×10^7 cells/mouse. Once tumor volumes exceeded 100 mm^3, mice were randomized into study arms.
To assess the combination in vivo, the H1650 xenograft model for NSCFC was utilized. […] Slug and E-cadherin mRNA expression was assessed by standard qPCR technique. […] Slug and E-cadherin protein expression was assessed by standard immunoblotting technique.
(§1) Tumor volumes and bodyweights were assessed twice weekly.
as §1

H1650 NSCLC cell line = experiment: H1650 cell viability (CellTiter-Glo); assay type: cell-based; settings: Homo sapiens, NCI-H1650

In the case of Retinyl Acetate [RA], the “induction in mRNA expression levels of CYP26” value [1] is reported as roughly 4.3 fold.
In the case of `CCOc1ccn(-c2ccc(F)cc2)c(=O)c1C(=O)Nc1ccc(Oc2ccnc(N)c2Cl)c(F)c1` [BMS-777607], the “migration of ES-2 cells” value (ES-2 cells) is reported as “did not inhibit migration”.
With `[NH2][Pt]([NH2])([Cl])[Cl]` [CDDP, cisplatin] the IC50 (ovarian cell lines; PA-1, A2780, OVISE, and OVTOKO (CDDP sensitive)) was less than 1 µM and the IC50 (ovarian cell lines; other cell lines (CDDP resistant)) was greater than 2.5 µM.
In the case of `CN1CCN(Cc2ccc(Nc3ncc(Cl)c(Nc4ccccc4S(=O)(=O)N(C)C)n3)cc2)CC1.O=C(O)C(O)C(O)C(=O)O` [Form D, 2-((5-chloro-2-((4-((4-methylpiperazin-1-yl)methyl)phenyl)amino)pyrimidin-4-yl)amino)-N,N-dimethylbenzenesulfonamide mono-tartrate salt], the solubility at 24 h ([2]; FaSSIF, 24 hours) is reported as 3900 µg/mL, the “FC (form change) of residual solid” value ([2]; FaSSIF, 24 hours) is reported as “Yes” and the solubility at 24 h ([2]; FeSSIF, 24 hours) is reported as 4600 µg/mL. For the same compound, the solubility at 24 h ([2]; SGF, simulated gastric fluid, 24 hours) was greater than 11000 µg/mL, the solubility kinetic ([2]; FaSSIF) was greater than 5000 µg/mL and the “water uptake at 80% RH” value ([3]; mono-tartrate salt) was 5.2%. For the same compound, the “FC (form change) after DVS” value [3] was “Yes”, the mortality [4] was 100% and the solubility at 24 h (pH solubility; pH 2.0 buffer, pH 2, aqueous buffer) was greater than 6800 µg/mL. For the same compound, the “FC (form change) of residual solid” value (pH solubility; pH 4.0) was “Yes”, the solubility at 24 h (pH solubility; pH 4.0 buffer, pH 4, aqueous buffer) was 230 µg/mL and the “FC (form change) of residual solid” value (pH solubility; pH 6.0) was “Yes”. For the same compound, the solubility at 24 h (pH solubility; pH 6.0 buffer, pH 6, aqueous buffer) was 1900 µg/mL, the “FC (form change) of residual solid” value (pH solubility; pH 8.0) was “Yes” and the solubility at 24 h (pH solubility; pH 8.0 buffer, pH 8, aqueous buffer) was 5 µg/mL. For the same compound, the “FC (form change) of residual solid” value (pH solubility; pH 10.0) was “Yes”, the solubility at 24 h (pH solubility; pH 10.0 buffer, pH 10, aqueous buffer) was 53 µg/mL and the “Form Change at 3 weeks” value [5] was “No”. The “HPLC Purity at 3 weeks (area %)” value [5] was 98.3 area %, the “Initial HPLC Purity (area %)” value [5] was 98.8 area % and the “Stability Results” value ([6]; 40° C.) was 98.2%. The “Stability Results” value ([6]; 40° C./75% RH) was 98.4%, the “Stability Results” value ([6]; 60° C.) was 98.2% and the “Stability Results” value ([6]; 60° C./75% RH) was 98.2%. For the same compound, the “Stability Results” value ([6]; Initial) was 98.4%, the “Stability by HPLC” value ([6]; listed as D, mono-tartrate salt) was “Stable” and the “Stability by HPLC” value ([6]; mono-tartrate salt) was “No significant changes”. The mortality [7] was “one mouse died”, the Moisture sorption isotherm [8] was “hygroscopic” and the “crystal form by XRPD after the moisture absorption/desorption cycle” value [8] was “transformed to the other forms”.
In the case of `CN1CCN(Cc2ccc(Nc3ncc(Cl)c(Nc4ccccc4S(=O)(=O)N(C)C)n3)cc2)CC1` [Form A, 2-((5-chloro-2-((4-((4-methylpiperazin-1-yl)methyl)phenyl)amino)pyrimidin-4-yl)amino)-N,N-dimethylbenzenesulfonamide di-tartrate salt], the Solubility ([2]; FaSSIF, 24 hours) is reported as >14.8/NA mg/mL, the Solubility ([2]; FeSSIF, 24 hours) is reported as 5.2/NA* mg/mL and the Solubility ([2]; SGF, 24 hours) is reported as >17.4/NA mg/mL. For the same compound, the solubility kinetic ([2]; FaSSIF) was greater than 5000 µg/mL, the “water uptake at 80% RH” value ([3]; di-tartrate salt) was 4.6% and the “FC (form change) after DVS” value [3] was “No”. For the same compound, the Solubility (pH solubility; pH 2.0 buffer, di-tartrate salt) was >6.7/NA mg/mL, the “FC (form change) of residual solid” value (pH solubility; pH 4.0) was “Yes” and the Solubility (pH solubility; pH 4.0 buffer, di-tartrate salt) was 0.45 mg/mL. For the same compound, the “FC (form change) of residual solid” value (pH solubility; pH 6.0, di-tartrate salt) was “Yes”, the Solubility (pH solubility; pH 6.0 buffer, di-tartrate salt) was 3.8 mg/mL and the “FC (form change) of residual solid” value (pH solubility; pH 8.0, di-tartrate salt) was “Yes”. The Solubility (pH solubility; pH 8.0 buffer, di-tartrate salt) was 0.020 mg/mL, the “FC (form change) of residual solid” value (pH solubility; pH 10.0, di-tartrate salt) was “Yes” and the Solubility (pH solubility; pH 10.0 buffer, di-tartrate salt) was 0.0098 mg/mL. The “Form Change at 3 weeks” value ([5]; di-tartrate salt) was “No”, the “HPLC Purity at 3 weeks (area %)” value ([5]; di-tartrate salt) was 99.7 area % and the “Initial HPLC Purity (area %)” value ([5]; di-tartrate salt) was 99.6 area %. For the same compound, the “Stability Results” value ([6]; 40° C.) was 99.3%, the “Stability Results” value ([6]; 40° C./75% RH) was 99.3% and the “Stability Results” value ([6]; 60° C.) was 99.3%. For the same compound, the “Stability Results” value ([6]; 60° C./75% RH) was 99.3%, the “Stability Results” value ([6]; Initial) was 99.3% and the “Stability by HPLC” value ([6]; di-tartrate salt) was “No significant changes”. For the same compound, the “Stability by HPLC” value ([6]; listed as A, di-tartrate salt) was “Stable”, the Moisture sorption isotherm [8] was “hygroscopic” and the “crystal form by XRPD after the moisture absorption/desorption cycle” value [8] was “maintained”.
With `C=CC(=O)Nc1cc(Nc2nccc(-c3cn(C)c4ccccc34)n2)c(OC)cc1N(C)CCN(C)C` [osimertinib] the “tumor growth inhibition (% TGI), single agent” value (H1650) was 121%, the EC50 (H1650 NSCLC cell line) was 2.2 µM and the IC50 (H1650 NSCLC cell line; single agent, 72 hours) was 2.2 µM.
